From patent US6388131B2, “Benzene compounds as antiproliferative and cholesterol lowering agents” (Tularik, Inc., priority 1997, dated 2002)

What was measured:
HeLa cells = experiment: Inhibition of in vitro growth of HeLa cells (Alamar Blue uptake); type: cell-based; conditions: Homo sapiens; concentration required to inhibit by 50% the uptake of Alamar Blue by HeLa cell cultures
From the text: Compounds and compositions of a particular embodiment of the invention display specific toxicity to various types of cells, preferably exerting their cytotoxic effects by interacting with cellular tubulin, preferably covalently and irreversibly. Compounds and compositions may be evaluated in vitro for their ability to inhibit cell grow, for example, as described by Ahmed et al. (J. Immunol. Methods 1994, 170, 211). […] Established animal models to evaluate antiproliferative effects of compounds are known in the art. For example, compounds can be evaluated for their ability to inhibit the growth of human tumors grafted into immunodeficient mice using methodology similar to that described by Rygaard and Poylsen (Acta Pathol. Microbiol. Scand. 1969, 77, 758) and Giovanella and Fogh (Adv. Cancer Res. 1985, 44, 69).
Compounds were evaluated for their ability to inhibit in vitro the growth of HeLa cells, an immortal cell line derived from a human cervical carcinoma commonly used to evaluate the cytotoxicity of potential therapeutic agents. The following data reflect the cytotoxicity of selected examples of the present invention. The values given represent the concentration of test compound required to inhibit by 50% the uptake of Alamar Blue (Biosource International, Camarillo, Calif.) by HeLA cell cultures, which correlates directly with the overall levels of cellular metabolism in the culture, and is generally accepted as an appropriate′marker of cell growth. The test was conducted according to the method of Ahmed et al. (J. Immunol. Methods 1994, 170, 211).

[1] = system: LDL receptor expression in HepG2 cells; experiment: Increase of LDL receptor expression in HepG2 cells, western-blot analysis; type: cell-based; conditions: Homo sapiens, minimum concentration at which a maximal induction of LDL receptor levels was observed
Method: Compounds and compositions of a particular embodiment of the invention are capable of specifically regulating LDL receptor gene expression. Compounds may be evaluated in vitro for their ability to increase LDL receptor expression using western-blot analysis, for example, as described by Tam et al. (J. Biol. Chem. 1991, 266, 16764). Preferred such compounds and compositions provide ECmax of less than about 50 μM, preferably less than about 5 μM, more preferably less than about 0.5 μM, more preferably less than about 0.05 μM, and most preferably less than about 0.005 μM in this assay (see, e.g. Example 28 herein). Established animal models to evaluate hypocholesterolemic effects of compounds are known in the art. For example, compounds disclosed herein are shown to lower cholesterol levels in hamsters fed a high-cholesterol diet, using a protocol simllar to that described by Spady et al. (J. Clin. Invest. 1988, 81, 300), Evans et al. (J. Lipid Res. 1994, 35, 1634), and Lin et al (J. Med. Chem. 1995, 38, 277).
Certain compounds were evaluated for their ability to increase LDL receptor expression in HepG2 cells using western-blot analysis as described by Tam et al., (J. Biol. Chem., 1991, 266, 16764). […] In all cases, the level of induction was greater than that observed under lipid-free conditions (activated system) in the absence of the test compounds.

Row | SMILES | IC50 (HeLa cells) [nM] | EC (max) [1] [µM]
1 | COc1ccc(NS(=O)(=O)c2cc(F)c(F)c(F)c2)cc1 [Example 22, 3,4,5-Trifluoro-1-[(4-methoxyphenyl)aminosulfonyl]benzene] | 5000 | 5
2 | COc1ccc(NS(=O)(=O)c2cc(F)c(F)c(F)c2F)cc1 [Example 20, 2,3,4,5-Tetrafluoro-1-[(4-methoxyphenyl)aminosulfonyl]benzene] | 500 | 1.5
3 | COc1ccc(NS(=O)(=O)c2c(F)cc(F)c(F)c2F)cc1 [Example 19, 2,3,4,6-Tetrafluoro-1-[(4-methoxyphenyl)aminosulfonyl]benzene] | 5000 | 15
4 | COc1ccc(CS(=O)(=O)c2c(F)c(F)c(F)c(F)c2F)cc1 [Example 24, 4-Methoxybenzyl Pentafluorophenyl Sulfone] | 5000 | 1.5
5 | COc1ccc(NS(=O)(=O)c2ccc(F)c(F)c2F)cc1O [Example 17, 1-[(3-Hydroxy-4-methoxyphenyl)aminosulfonyl]-2,3,4-trifluorobenzene] | 1500 | –
6 | COc1ccc(NS(=O)(=O)c2c(F)c(F)c(Br)c(F)c2F)cc1 [Example 6, 1-Bromo-2,3,5,6-tetrafluoro-4-[(4-methoxyphenyl)aminosulfonyl]benzene] | 5000 | 50
7 | COc1ccc(NS(=O)(=O)c2ccc(F)c([N+](=O)[O-])c2)cc1 [Example 1, 4-Fluoro-1-[(4-methoxyphenyl)aminosulfonyl]-3-nitrobenzene] | – | 5
8 | COc1ccc(NS(=O)(=O)c2cc(Br)c(F)c(F)c2F)cc1 [Example 10, 1-Bromo-2,3,4-trifluoro-5-[(4-methoxyphenyl)aminosulfonyl]benzene] | 500 | 1.5
9 | COc1ccc(NS(=O)(=O)c2cc(F)c(F)c(F)c2)cc1O [Example 23, 3,4,5-Trifluoro-1-[(3-hydroxy-4-methoxyphenyl)aminosulfonyl]benzene] | 1500 | –
10 | COc1ccc(NS(=O)(=O)c2c(F)c(F)c(Cl)c(F)c2F)cc1 [Example 7, 1-Chloro-2,3,5,6-tetrafluoro-4-[(4-methoxyphenyl)aminosulfonyl]benzene] | 1500 | 50
11 | COc1ccc(NS(=O)(=O)c2c(F)c(F)c(F)c(F)c2Br)cc1 [Example 4, 1-Bromo-3,4,5,6-tetrafluoro-2-[(4-methoxyphenyl)aminosulfonyl]benzene] | 150 | 0.5
12 | COc1ccc(NS(=O)(=O)c2cc(F)c(F)c(F)c2Br)cc1 [Example 11, 1-Bromo-4,5,6-trifluoro-2-[(4-methoxyphenyl)aminosulfonyl]benzene] | 500 | 1.5

Continued, in another order:

Row | IC50 (HeLa cells) [nM] | SMILES | EC (max) [1] [µM]
13 | 150 | COc1ccc(NS(=O)(=O)c2cc(F)c(F)c(F)c2F)cc1O [Example 21, 2,3,4,5-Tetrafluoro-1-[(3-hydroxy-4-methoxyphenyl)aminosulfonyl]benzene] | 0.5
14 | 50 | COc1ccc(NS(=O)(=O)c2c(F)c(Cl)c(F)c(Cl)c2F)cc1O [Example 9, 1,3-Dichloro-2,4,6-trifluoro-5-[(3-hydroxy-4-methoxyphenyl)aminosulfonyl]benzene] | 0.15
15 | 50 | COc1ccc(NS(=O)(=O)c2c(F)c(F)c(F)c(F)c2Br)cc1O [Example 3, 1-Bromo-3,4,5,6-tetrafluoro-2-[(3-hydroxy-4-methoxyphenyl)aminosulfonyl]benzene] | 0.15
16 | 150 | COc1ccc(NS(=O)(=O)c2c(F)c(F)c(F)c(Br)c2F)cc1 [Example 5] | 0.5
17 | 150 | COc1ccc(NS(=O)(=O)c2c(F)c(Cl)c(F)c(Cl)c2F)cc1 [Example 8, 1,3-Dichloro-2,4,6-trifluoro-5-[(4-methoxyphenyl)aminosulfony]benzene] | 0.5
18 | 150 | COc1ccc(NS(=O)(=O)c2ccc(F)c([N+](=O)[O-])c2)cc1O [Example 2, 4-Fluoro-1-[(3-hydroxy-4-methoxyphenyl)aminosulfonyl]-3-nitrobenzene] | 1.5
